Laboratory results from the OligoGym collection.
HELM strings list units from the 5' end as sugar, base in round brackets, then linkage (d deoxyribose, r ribose, m 2'-O-methyl, p phosphodiester). Strings are as the collection lists them, not checked against the first reports. ss, as = sense and antisense strand; [s4r] = 4'-thioribose

Details: siRNA
Note: test system not given here.

Substance	target mRNA knockdown [%]
RNA1{r(C)p.r(G)p.r(U)p.r(A)p.r(C)p.r(G)p.[s4r](C)p.[s4r](G)p.[s4r](G)p.[s4r](A)p.[s4r](A)p.[s4r](U)p.[s4r](A)p.r(C)p.r(U)p.r(U)p.r(C)p.r(G)p.r(A)p.r(T)p.r(T)}|RNA2{r(U)p.r(C)p.r(G)p.r(A)p.r(A)p.r(G)p.r(U)p.r(A)p.r(U)p.r(U)p.r(C)p.r(C)p.r(G)p.r(C)p.r(G)p.r(U)p.r(A)p.r(C)p.r(G)p.r(T)p.r(T)}$$$RNA1{StrandType:ss}|RNA2{StrandType:as}$	87.4
RNA1{r(C)p.r(G)p.r(U)p.r(A)p.r(C)p.r(G)p.r(C)p.r(G)p.r(G)p.r(A)p.r(A)p.r(U)p.r(A)p.[s4r](C)p.[s4r](U)p.[s4r](U)p.[s4r](C)p.[s4r](G)p.[s4r](A)p.r(T)p.r(T)}|RNA2{[s4r](U)p.[s4r](C)p.[s4r](G)p.[s4r](A)p.[s4r](A)p.[s4r](G)p.r(U)p.r(A)p.r(U)p.r(U)p.r(C)p.r(C)p.r(G)p.r(C)p.r(G)p.r(U)p.r(A)p.r(C)p.r(G)p.r(T)p.r(T)}$$$RNA1{StrandType:ss}|RNA2{StrandType:as}$	10.9
RNA1{r(C)p.r(G)p.r(U)p.r(A)p.r(C)p.r(G)p.r(C)p.r(G)p.r(G)p.r(A)p.r(A)p.r(U)p.r(A)p.[s4r](C)p.[s4r](U)p.[s4r](U)p.[s4r](C)p.[s4r](G)p.[s4r](A)p.r(T)p.r(T)}|RNA2{r(U)p.r(C)p.r(G)p.r(A)p.r(A)p.r(G)p.r(U)p.r(A)p.r(U)p.r(U)p.r(C)p.r(C)p.r(G)p.r(C)p.r(G)p.r(U)p.r(A)p.r(C)p.r(G)p.r(T)p.r(T)}$$$RNA1{StrandType:ss}|RNA2{StrandType:as}$	93.8
RNA1{r(C)p.r(G)p.r(U)p.r(A)p.r(C)p.r(G)p.r(C)p.r(G)p.r(G)p.r(A)p.r(A)p.r(U)p.r(A)p.m(C)p.m(U)p.m(U)p.m(C)p.m(G)p.m(A)p.r(T)p.r(T)}|RNA2{r(U)p.r(C)p.r(G)p.r(A)p.r(A)p.r(G)p.r(U)p.r(A)p.r(U)p.r(U)p.r(C)p.r(C)p.r(G)p.r(C)p.r(G)p.r(U)p.r(A)p.r(C)p.r(G)p.r(T)p.r(T)}$$$RNA1{StrandType:ss}|RNA2{StrandType:as}$	94.2
RNA1{r(C)p.r(G)p.r(U)p.r(A)p.r(C)p.r(G)p.r(C)p.r(G)p.r(G)p.r(A)p.r(A)p.r(U)p.r(A)p.r(C)p.r(U)p.[s4r](U)p.[s4r](C)p.[s4r](G)p.[s4r](A)p.r(T)p.r(T)}|RNA2{[s4r](U)p.[s4r](C)p.[s4r](G)p.[s4r](A)p.r(A)p.r(G)p.r(U)p.r(A)p.r(U)p.r(U)p.r(C)p.r(C)p.r(G)p.r(C)p.r(G)p.r(U)p.r(A)p.r(C)p.r(G)p.r(T)p.r(T)}$$$RNA1{StrandType:ss}|RNA2{StrandType:as}$	35.1
RNA1{r(C)p.r(G)p.r(U)p.r(A)p.r(C)p.r(G)p.r(C)p.r(G)p.r(G)p.r(A)p.r(A)p.r(U)p.r(A)p.r(C)p.r(U)p.[s4r](U)p.[s4r](C)p.[s4r](G)p.[s4r](A)p.r(T)p.r(T)}|RNA2{r(U)p.r(C)p.r(G)p.r(A)p.r(A)p.r(G)p.r(U)p.r(A)p.r(U)p.r(U)p.r(C)p.r(C)p.r(G)p.r(C)p.r(G)p.[s4r](U)p.[s4r](A)p.[s4r](C)p.[s4r](G)p.r(T)p.r(T)}$$$RNA1{StrandType:ss}|RNA2{StrandType:as}$	83.4
RNA1{r(C)p.r(G)p.r(U)p.r(A)p.r(C)p.r(G)p.r(C)p.r(G)p.r(G)p.r(A)p.r(A)p.r(U)p.r(A)p.r(C)p.r(U)p.[s4r](U)p.[s4r](C)p.[s4r](G)p.[s4r](A)p.r(T)p.r(T)}|RNA2{r(U)p.r(C)p.r(G)p.r(A)p.r(A)p.r(G)p.r(U)p.r(A)p.r(U)p.r(U)p.r(C)p.r(C)p.r(G)p.r(C)p.r(G)p.r(U)p.r(A)p.r(C)p.r(G)p.r(T)p.r(T)}$$$RNA1{StrandType:ss}|RNA2{StrandType:as}$	94.3
RNA1{r(C)p.r(G)p.r(U)p.r(A)p.r(C)p.r(G)p.r(C)p.r(G)p.r(G)p.r(A)p.r(A)p.r(U)p.r(A)p.r(C)p.r(U)p.r(U)p.r(C)p.[s4r](G)p.[s4r](A)p.r(T)p.r(T)}|RNA2{[s4r](U)p.[s4r](C)p.r(G)p.r(A)p.r(A)p.r(G)p.r(U)p.r(A)p.r(U)p.r(U)p.r(C)p.r(C)p.r(G)p.r(C)p.r(G)p.r(U)p.r(A)p.r(C)p.r(G)p.r(T)p.r(T)}$$$RNA1{StrandType:ss}|RNA2{StrandType:as}$	91.2
RNA1{r(C)p.r(G)p.r(U)p.r(A)p.r(C)p.r(G)p.r(C)p.r(G)p.r(G)p.r(A)p.r(A)p.r(U)p.r(A)p.r(C)p.r(U)p.r(U)p.r(C)p.[s4r](G)p.[s4r](A)p.r(T)p.r(T)}|RNA2{r(U)p.r(C)p.r(G)p.r(A)p.r(A)p.r(G)p.r(U)p.r(A)p.r(U)p.r(U)p.r(C)p.r(C)p.r(G)p.r(C)p.r(G)p.r(U)p.r(A)p.r(C)p.r(G)p.r(T)p.r(T)}$$$RNA1{StrandType:ss}|RNA2{StrandType:as}$	95.4
RNA1{r(C)p.r(G)p.r(U)p.r(A)p.r(C)p.r(G)p.r(C)p.r(G)p.r(G)p.r(A)p.r(A)p.r(U)p.r(A)p.r(C)p.r(U)p.r(U)p.r(C)p.r(G)p.r(A)p.r(T)p.r(T)}|RNA2{[s4r](U)p.[s4r](C)p.[s4r](G)p.[s4r](A)p.[s4r](A)p.[s4r](G)p.[s4r](U)p.[s4r](A)p.[s4r](U)p.[s4r](U)p.[s4r](C)p.[s4r](C)p.[s4r](G)p.[s4r](C)p.[s4r](G)p.[s4r](U)p.[s4r](A)p.[s4r](C)p.[s4r](G)p.r(T)p.r(T)}$$$RNA1{StrandType:ss}|RNA2{StrandType:as}$	16.6
RNA1{r(C)p.r(G)p.r(U)p.r(A)p.r(C)p.r(G)p.r(C)p.r(G)p.r(G)p.r(A)p.r(A)p.r(U)p.r(A)p.r(C)p.r(U)p.r(U)p.r(C)p.r(G)p.r(A)p.r(T)p.r(T)}|RNA2{[s4r](U)p.[s4r](C)p.[s4r](G)p.[s4r](A)p.[s4r](A)p.[s4r](G)p.r(U)p.r(A)p.r(U)p.r(U)p.r(C)p.r(C)p.r(G)p.[s4r](C)p.[s4r](G)p.[s4r](U)p.[s4r](A)p.[s4r](C)p.[s4r](G)p.r(T)p.r(T)}$$$RNA1{StrandType:ss}|RNA2{StrandType:as}$	22.8
RNA1{r(C)p.r(G)p.r(U)p.r(A)p.r(C)p.r(G)p.r(C)p.r(G)p.r(G)p.r(A)p.r(A)p.r(U)p.r(A)p.r(C)p.r(U)p.r(U)p.r(C)p.r(G)p.r(A)p.r(T)p.r(T)}|RNA2{[s4r](U)p.[s4r](C)p.[s4r](G)p.[s4r](A)p.[s4r](A)p.[s4r](G)p.r(U)p.r(A)p.r(U)p.r(U)p.r(C)p.r(C)p.r(G)p.r(C)p.r(G)p.r(U)p.r(A)p.r(C)p.r(G)p.r(T)p.r(T)}$$$RNA1{StrandType:ss}|RNA2{StrandType:as}$	70.9
RNA1{r(C)p.r(G)p.r(U)p.r(A)p.r(C)p.r(G)p.r(C)p.r(G)p.r(G)p.r(A)p.r(A)p.r(U)p.r(A)p.r(C)p.r(U)p.r(U)p.r(C)p.r(G)p.r(A)p.r(T)p.r(T)}|RNA2{[s4r](U)p.[s4r](C)p.[s4r](G)p.[s4r](A)p.r(A)p.r(G)p.r(U)p.r(A)p.r(U)p.r(U)p.r(C)p.r(C)p.r(G)p.r(C)p.r(G)p.[s4r](U)p.[s4r](A)p.[s4r](C)p.[s4r](G)p.r(T)p.r(T)}$$$RNA1{StrandType:ss}|RNA2{StrandType:as}$	20
RNA1{r(C)p.r(G)p.r(U)p.r(A)p.r(C)p.r(G)p.r(C)p.r(G)p.r(G)p.r(A)p.r(A)p.r(U)p.r(A)p.r(C)p.r(U)p.r(U)p.r(C)p.r(G)p.r(A)p.r(T)p.r(T)}|RNA2{[s4r](U)p.[s4r](C)p.[s4r](G)p.[s4r](A)p.r(A)p.r(G)p.r(U)p.r(A)p.r(U)p.r(U)p.r(C)p.r(C)p.r(G)p.r(C)p.r(G)p.r(U)p.r(A)p.r(C)p.r(G)p.r(T)p.r(T)}$$$RNA1{StrandType:ss}|RNA2{StrandType:as}$	76.7
RNA1{r(C)p.r(G)p.r(U)p.r(A)p.r(C)p.r(G)p.r(C)p.r(G)p.r(G)p.r(A)p.r(A)p.r(U)p.r(A)p.r(C)p.r(U)p.r(U)p.r(C)p.r(G)p.r(A)p.r(T)p.r(T)}|RNA2{[s4r](U)p.[s4r](C)p.r(G)p.r(A)p.r(A)p.r(G)p.[s4r](U)p.r(A)p.[s4r](U)p.[s4r](U)p.[s4r](C)p.[s4r](C)p.r(G)p.[s4r](C)p.r(G)p.[s4r](U)p.r(A)p.[s4r](C)p.r(G)p.r(T)p.r(T)}$$$RNA1{StrandType:ss}|RNA2{StrandType:as}$	27.5
RNA1{r(C)p.r(G)p.r(U)p.r(A)p.r(C)p.r(G)p.r(C)p.r(G)p.r(G)p.r(A)p.r(A)p.r(U)p.r(A)p.r(C)p.r(U)p.r(U)p.r(C)p.r(G)p.r(A)p.r(T)p.r(T)}|RNA2{[s4r](U)p.[s4r](C)p.r(G)p.r(A)p.r(A)p.r(G)p.r(U)p.r(A)p.r(U)p.r(U)p.r(C)p.r(C)p.r(G)p.r(C)p.r(G)p.r(U)p.r(A)p.[s4r](C)p.[s4r](G)p.r(T)p.r(T)}$$$RNA1{StrandType:ss}|RNA2{StrandType:as}$	88.8
RNA1{r(C)p.r(G)p.r(U)p.r(A)p.r(C)p.r(G)p.r(C)p.r(G)p.r(G)p.r(A)p.r(A)p.r(U)p.r(A)p.r(C)p.r(U)p.r(U)p.r(C)p.r(G)p.r(A)p.r(T)p.r(T)}|RNA2{[s4r](U)p.[s4r](C)p.r(G)p.r(A)p.r(A)p.r(G)p.r(U)p.r(A)p.r(U)p.r(U)p.r(C)p.r(C)p.r(G)p.r(C)p.r(G)p.r(U)p.r(A)p.r(C)p.r(G)p.r(T)p.r(T)}$$$RNA1{StrandType:ss}|RNA2{StrandType:as}$	95
RNA1{r(C)p.r(G)p.r(U)p.r(A)p.r(C)p.r(G)p.r(C)p.r(G)p.r(G)p.r(A)p.r(A)p.r(U)p.r(A)p.r(C)p.r(U)p.r(U)p.r(C)p.r(G)p.r(A)p.r(T)p.r(T)}|RNA2{[s4r](U)p.r(C)p.r(G)p.r(A)p.r(A)p.r(G)p.[s4r](U)p.r(A)p.[s4r](U)p.[s4r](U)p.r(C)p.r(C)p.r(G)p.r(C)p.r(G)p.[s4r](U)p.r(A)p.r(C)p.r(G)p.r(T)p.r(T)}$$$RNA1{StrandType:ss}|RNA2{StrandType:as}$	79.5
RNA1{r(C)p.r(G)p.r(U)p.r(A)p.r(C)p.r(G)p.r(C)p.r(G)p.r(G)p.r(A)p.r(A)p.r(U)p.r(A)p.r(C)p.r(U)p.r(U)p.r(C)p.r(G)p.r(A)p.r(T)p.r(T)}|RNA2{m(U)p.m(C)p.m(G)p.m(A)p.m(A)p.m(G)p.r(U)p.r(A)p.r(U)p.r(U)p.r(C)p.r(C)p.r(G)p.r(C)p.r(G)p.r(U)p.r(A)p.r(C)p.r(G)p.r(T)p.r(T)}$$$RNA1{StrandType:ss}|RNA2{StrandType:as}$	10.3
